Laboratory results reported in patent US11965006B2, “Antimicrobial and anti-cancer therapy” (UNIVERSITY OF PITTSBURGH—OF THE COMMONWEALTH SYSTEM OF …, priority 2016, dated 2024).
Square brackets hold non-standard residues; d marks the D form. Ends that are not written are not given here. Peptide text beside a SMILES is read from it.

Assays:
Type in all cases: cell-based
[1] = system: methicillin-resistant Staphylococcus aureus (MRSA) clinical isolates; settings: methicillin-resistant clinical isolates, 18 h
Protocol: (§1) The bactericidal activities were examined using standard bacterial culture media (MHB) without the inclusion of human blood.
(§2) Tables 3 and 4 provide the MIC data for the tested AMPs against a variety of infectious species. The following strains were tested: Enterococcus faecium MDR clinical isolates Ef 25153 and Ef 26125; methicillin-resistant Staphylococcus aureus (MRSA) clinical isolates USA300 and 150-10; Klebsiella pneumonia MDR clinical isolates C3, C5, A5, D7 and E6; and Pseudomonas aeruginosa MDR clinical isolates PA 82-8 and PA 129-5. […] Table 5 provides the data for the D-amino acid substituted AMPs and their bactericidal activities against various Klebsiella pneumonia multi-drug resistant (MDR) clinical isolates. All odd number Kp bacteria (isolated prior to colistin treatment; colistin sensitive) are paired with the corresponding even number Kp bacteria (isolated after colistin treatment; colistin resistant) from the same patient. O.D. readings represent the bacterial growth with a background reading of about 0.049+/−0.003.

[2] = system: Pseudomonas aeruginosa MDR clinical isolates; settings: MDR clinical isolates, 18 h
Protocol: as §1, §2

[3] = system: Klebsiella pneumonia MDR clinical isolates; settings: 18 h
Protocol: as §1, §2

[4] = system: Enterococcus faecium MDR clinical isolates; settings: MDR clinical isolates, 18 h
Protocol: as §1, §2

[5] = system: P. aeruginosa lipopolysaccharide (LPS)-induced secretion of tumor necrosis factor (TNF) in Raw (264.7) Cells; experiment: Neutralization of LPS-induced TNF secretion; settings: 1 μg/ml LPS
Protocol: Anti-inflammatory activity is based on the determination of cytokine stimulation of major inflammatory (e.g. TNF) or anti-inflammatory (e.g., IL-10) cytokines. For in vitro studies, TNF is measured using culture medium from LPS-stimulated macrophage cultures in the presence or absence of peptide treatment. For in vivo studies, cytokine levels in bronchoalveolar lavage (BAL) fluid were quantified using the mouse cytokine multiplex panel assay (Milliplex; Millipore, Billerica, Mass.). The expressions of cytokines were analyzed using the Luminex assay system, based on manufacturer's instructions and our previous publication. Standard recombinant protein solution was used to generate a standard curve for each analyzed protein. Absolute cytokine concentrations were calculated from the standard curve for each cytokine.
A high dosage (1 μg/ml) of LPS was used to stimulate the TNF secretion in raw cells.

[6] = system: Klebsiella pneumonia multi-drug resistant (MDR) clinical isolates; experiment: Bacterial growth (O.D. readings) of Kp isolates treated with D-amino acid substituted AMPs
Protocol: as §2

[7] = Kp strain 1 (colistin sensitive), background about 0.049
[8] = Kp strain 2 (colistin resistant), background about 0.049
[9] = Kp strain 3 (colistin sensitive)
[10] = Kp strain 4 (colistin resistant)
[11] = Kp strain 5 (colistin sensitive)
[12] = Kp strain 6 (colistin resistant)
[13] = Kp strain 7 (colistin sensitive)
[14] = Kp strain 8 (colistin resistant)
[15] = Kp strain 9 (colistin sensitive)
[16] = Kp strain 10 (colistin resistant)
[17] = Kp strain 11 (colistin sensitive)
[18] = Kp strain 12 (colistin resistant)
[19] = Kp strain 13 (colistin sensitive)
[20] = Kp strain 14 (colistin resistant)
[21] = Kp strain 15 (colistin sensitive)
[22] = Kp strain 16 (colistin resistant)
[23] = Kp strain 17 (colistin sensitive)
[24] = Kp strain 18 (colistin resistant)
[25] = Kp strain 19 (colistin sensitive)
[26] = Kp strain 20 (colistin resistant)
[27] = Kp strain 21 (colistin sensitive)
[28] = Kp strain 22 (colistin resistant)
[29] = Kp strain 23 (colistin sensitive)
[30] = Kp strain 24 (colistin resistant)

GVKKKWKKKLGLKLWLKISGVVLG [SEQ ID No. 24, reference compound]
MIC MRSA 150-10 [1]: >32 µM | MIC MRSA USA300 [1]: >32 µM | MIC PA 82-8 [2]: >32 µM | MIC PA 129-5 [2]: <16 µM | MIC A5 [3]: 32 µM | MIC C3 [3]: 32 µM | MIC Ef 25153 [4]: >32 µM | MIC Ef 26125 [4]: 16 µM | neutralizing LPS-induced TNF secretion [5]: Display Neutralizing Activities

CC(C)[C@H](NC(=O)[C@H](Cc1c[nH]c2ccccc12)NC(=O)[C@H](CCCNC(=N)N)NC(=O)[C@@H](N)CCCNC(=N)N)C(=O)N[C@@H](CCCNC(=N)N)C(=O)N[C@@H](CCCNC(=N)N)C(=O)N[C@@H](C(=O)N[C@@H](CCCNC(=N)N)C(=O)N[C@@H](CCCNC(=N)N)C(=O)N[C@@H](C(=O)N[C@@H](Cc1c[nH]c2ccccc12)C(=O)N[C@@H](CCCNC(=N)N)C(=O)N[C@@H](CCCNC(=N)N)C(=O)N[C@H](C(=O)N[C@@H](C(=O)N[C@@H](CCCNC(=N)N)C(=O)N[C@@H](C(=O)N[C@@H](C(=O)N[C@@H](CCCNC(=N)N)C(=O)N[C@@H](CCCNC(=N)N)C(=O)N[C@@H](Cc1c[nH]c2ccccc12)C(=O)N[C@@H](C(=O)N[C@@H](CCCNC(=N)N)C(=O)N[C@@H](CCCNC(=N)N)C(=O)O)C(C)C)C(C)C)C(C)C)C(C)C)C(C)C)C(C)C)C(C)C [SEQ ID No. 33] (H-RRWVRR[dV]RR[dV]WRRV[dV]R[dV][dV]RRW[dV]RR-OH; N-terminus and C-terminus assumed)
O.D. reading [6, 7]: 0.104 | O.D. reading [6, 8]: 0.108 | O.D. reading [6, 9]: 0.048 | O.D. reading [6, 10]: 0.047 | O.D. reading [6, 11]: 0.053 | O.D. reading [6, 12]: 0.12 | O.D. reading [6, 13]: 0.046 | O.D. reading [6, 14]: 0.056 | O.D. reading [6, 15]: 0.043 | O.D. reading [6, 16]: 0.131 | O.D. reading [6, 17]: 0.057 | O.D. reading [6, 18]: 0.066 | O.D. reading [6, 19]: 0.05 | O.D. reading [6, 20]: 0.089 | O.D. reading [6, 21]: 0.048 | O.D. reading [6, 22]: 0.054 | O.D. reading [6, 23]: 0.044 | O.D. reading [6, 24]: 0.048 | O.D. reading [6, 25]: 0.049 | O.D. reading [6, 26]: 0.05 | O.D. reading [6, 27]: 0.048 | O.D. reading [6, 28]: 0.05 | O.D. reading [6, 29]: 0.047 | O.D. reading [6, 30]: 0.076

CC(C)[C@H](NC(=O)[C@H](Cc1c[nH]c2ccccc12)NC(=O)[C@H](CCCNC(=N)N)NC(=O)[C@@H](N)CCCNC(=N)N)C(=O)N[C@@H](CCCNC(=N)N)C(=O)N[C@@H](CCCNC(=N)N)C(=O)N[C@@H](C(=O)N[C@@H](CCCNC(=N)N)C(=O)N[C@@H](CCCNC(=N)N)C(=O)N[C@H](C(=O)N[C@@H](Cc1c[nH]c2ccccc12)C(=O)N[C@@H](CCCNC(=N)N)C(=O)N[C@@H](CCCNC(=N)N)C(=O)N[C@H](C(=O)N[C@@H](C(=O)N[C@@H](CCCNC(=N)N)C(=O)N[C@@H](C(=O)N[C@H](C(=O)N[C@@H](CCCNC(=N)N)C(=O)N[C@@H](CCCNC(=N)N)C(=O)N[C@@H](Cc1c[nH]c2ccccc12)C(=O)N[C@@H](C(=O)N[C@@H](CCCNC(=N)N)C(=O)N[C@@H](CCCNC(=N)N)C(=O)O)C(C)C)C(C)C)C(C)C)C(C)C)C(C)C)C(C)C)C(C)C [SEQ ID No. 32] (H-RRWVRR[dV]RRVWRRV[dV]R[dV]VRRW[dV]RR-OH; N-terminus and C-terminus assumed)
O.D. reading [6, 7]: 0.039 | O.D. reading [6, 8]: 0.044 | O.D. reading [6, 9]: 0.043 | O.D. reading [6, 10]: 0.042 | O.D. reading [6, 11]: 0.042 | O.D. reading [6, 12]: 0.107 | O.D. reading [6, 13]: 0.042 | O.D. reading [6, 14]: 0.04 | O.D. reading [6, 15]: 0.042 | O.D. reading [6, 16]: 0.048 | O.D. reading [6, 17]: 0.048 | O.D. reading [6, 18]: 0.05 | O.D. reading [6, 19]: 0.048 | O.D. reading [6, 20]: 0.047 | O.D. reading [6, 21]: 0.048 | O.D. reading [6, 22]: 0.045 | O.D. reading [6, 23]: 0.045 | O.D. reading [6, 24]: 0.047 | O.D. reading [6, 25]: 0.048 | O.D. reading [6, 26]: 0.049 | O.D. reading [6, 27]: 0.051 | O.D. reading [6, 28]: 0.048 | O.D. reading [6, 29]: 0.048 | O.D. reading [6, 30]: 0.11

ILKPGGGTSGGLLGGLLGKVTSVIPGLNNI [SEQ ID No. 1, reference compound]
MIC MRSA 150-10 [1]: >32 µM | MIC MRSA USA300 [1]: >32 µM | MIC PA 82-8 [2]: >32 µM | MIC PA 129-5 [2]: >32 µM | MIC A5 [3]: >32 µM | MIC C3 [3]: >32 µM | MIC C5 [3]: >32 µM | MIC D7 [3]: >32 µM | MIC E6 [3]: >32 µM | MIC Ef 25153 [4]: >32 µM | MIC Ef 26125 [4]: >32 µM | neutralizing LPS-induced TNF secretion [5]: display neutralizing activities

LLGDFFRKSKEKIGKEFKRIVQRIKDFLRNLLPRTES [SEQ ID No. 25, reference compound]
MIC MRSA 150-10 [1]: 32 µM | MIC MRSA USA300 [1]: >32 µM | MIC PA 82-8 [2]: 32 µM | MIC PA 129-5 [2]: 16 µM | MIC A5 [3]: >32 µM | MIC C3 [3]: 32 µM | MIC C5 [3]: >32 µM | MIC D7 [3]: <16 µM | MIC E6 [3]: <16 µM | MIC Ef 25153 [4]: <16 µM | MIC Ef 26125 [4]: <16 µM | neutralizing LPS-induced TNF secretion [5]: Do Not Neutralize

LKKWWKKVKGLLGGLLGKVKKVIK [SEQ ID No. 17]
MIC MRSA 150-10 [1]: <2 µM | MIC MRSA USA300 [1]: <2 µM | MIC PA82 82-8 [2]: 4 µM | MIC PA 129-5 [2]: <2 µM | MIC A5 [3]: >4 µM | MIC C3 [3]: <2 µM | MIC C5 [3]: 4 µM | MIC D7 [3]: <2 µM | MIC E6 [3]: <2 µM | MIC Ef 25153 [4]: <2 µM | MIC Ef 26125 [4]: <2 µM

LKKWWKKVKGLLGGLLGKVKSVIK [SEQ ID No. 16]
MIC MRSA 150-10 [1]: 4 µM | MIC MRSA USA300 [1]: <2 µM | MIC PA82 82-8 [2]: 4 µM | MIC PA 129-5 [2]: 4 µM | MIC A5 [3]: >4 µM | MIC C3 [3]: <2 µM | MIC C5 [3]: 4 µM | MIC D7 [3]: <2 µM | MIC E6 [3]: <2 µM | MIC Ef 25153 [4]: <2 µM | MIC Ef 26125 [4]: <2 µM

LKKWWKTSKGLLGGLLGKVTSVIK [SEQ ID No. 13]
MIC MRSA USA300 [1]: <8 µM | MIC PA82 82-8 [2]: 16 µM | MIC PA 129-5 [2]: <16 µM | MIC A5 [3]: >16 µM | MIC C3 [3]: >16 µM | MIC C5 [3]: 16 µM | MIC D7 [3]: <8 µM | MIC E6 [3]: <8 µM | MIC Ef 25153 [4]: <16 µM | MIC Ef 26125 [4]: <8 µM | neutralizing LPS-induced TNF secretion [5]: Display Neutralizing Activities
